Literature values, collected in patent US20230149366A1, “SOLID DOSAGE FORMS OF TAFAMIDIS” (Nuray Chemicals Private Limited, priority 2021, published 2023).

Settings: Vyndaqel European Public assessment report

- Solubility in vehicles commonly used in formulating soft gelatin capsules: poor solubility
- Gel formation in hard gelatin capsule with standard excipients (upon contact with aqueous vehicles): formed a rigid gel structure
SMILES: O=C(O)c1ccc2nc(-c3cc(Cl)cc(Cl)c3)oc2c1 [tafamidis, 2-(3,5-dichlorophenyl)-1,3-benzoxazole-6-carboxylic acid]
